Assay results from patent US20250032476A1, “ALPHA-2A ADRENERGIC RECEPTOR MODULATORS AND USES THEREOF” (The Regents of the University of California, priority 2021, published 2025).
Values joined by “and” are separate entries in the source; they are usually repeats but may differ in a detail not shown here. Equal values may be shown once. “Also recorded” adds a separate entry of the source. Where a name gives a salt, the structure may show the parent alone. Read-outs that look alike come from different tables or passages of the source.

Columns and labels:
[1] = test system: CFA mice; assay: Complete Freund's Adjuvant (CFA) inflammatory pain model, Hargreaves test; conditions: mouse, in vivo
Procedure: The CFA model of chronic inflammation was induced as described previously (96). Briefly, CFA (Sigma) was diluted 1:1 with saline and vortexed for 30 minutes. When fully suspended, we injected 20 μL of CFA into one hindpaw. Heat thresholds were measured before the injection (baseline) and 3 days after using the Hargreaves test.
The CFA model of chronic inflammation was induced as described previously (100). Briefly, CFA (Sigma) was diluted 1:1 with saline and vortexed for 30 minutes. When fully suspended, we injected 20 μL of CFA into one hindpaw. Heat thresholds were measured before the injection (baseline) and 3 days after using the Hargreaves test.

[2] = test system: SNI mice; assay: Spared-nerve injury (SNI) model of neuropathic pain, von Frey mechanical thresholds; assay type: in vivo; conditions: for Effect of atipamezole on the agonist's effect in SNI mice: atipamezole 2 mg/kg, 15 minutes prior
Procedure: Spared-nerve injury (SNI) model of neuropathic pain. Under isoflurane anesthesia, two of the three branches of the sciatic nerve were ligated and transected distally, leaving the sural nerve intact. Behavior was tested 7 to 14 days after injury and in situ hybridization was performed one week post-injury.

[3] = target: T1, ALPHA-2A ADRENERGIC RECEPTOR (Homo sapiens (Human), UniProt P08913); assay: Gi recruitment (G protein); assay type: cell-based
T1 sequence (P08913 whole entry): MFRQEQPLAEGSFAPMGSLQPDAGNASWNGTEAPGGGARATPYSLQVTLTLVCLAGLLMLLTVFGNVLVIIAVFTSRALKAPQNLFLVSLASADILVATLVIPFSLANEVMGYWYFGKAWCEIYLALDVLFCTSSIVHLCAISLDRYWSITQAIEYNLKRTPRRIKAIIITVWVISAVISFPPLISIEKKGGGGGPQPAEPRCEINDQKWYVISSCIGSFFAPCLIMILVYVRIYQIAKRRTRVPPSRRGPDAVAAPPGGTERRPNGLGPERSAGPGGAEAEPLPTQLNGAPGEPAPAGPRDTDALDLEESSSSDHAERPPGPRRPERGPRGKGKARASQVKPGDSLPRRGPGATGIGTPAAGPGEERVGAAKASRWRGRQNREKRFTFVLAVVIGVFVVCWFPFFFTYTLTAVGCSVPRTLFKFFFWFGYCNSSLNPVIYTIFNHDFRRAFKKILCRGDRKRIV

[4] = target: T2, human α2AAR (Homo sapiens (Human), UniProt P08913); assay: Radioligand competition binding to human α2AAR (HEK293T membranes, [3H]RX82,1002); conditions: for Ki: human α2AAR
T2 sequence (P08913 whole entry): as above

[5] = target: T2, human α2AAR; assay: Gαi G protein activation, BRET biosensor assay in HEK293T cells; conditions: for Emax: HEK-293T
Procedure: (§2) Bioluminescense resonance energy transfer. G protein mediated activation of human α2AAR and D2long was monitored with Gαi1-RLucII (71, 72) together with Gβ1 and Gγ1-GFP10. Arrestin recruitment was performed by enhanced bystander BRET using CAAX-rGFP and β-arrestin-2-RLucII as biosensors (all biosensors are provided from M. Bouvier, Université de Montréal, Canada) (71, 73) in the presence of GRK2 as described (66, 74). In brief, HEK293T cells were transfected with a total amount of 3.3 μg DNA per 10^6 cells using linear polyethyleneimine (PEI, Polysciences, 3:1 PEI:DNA ratio) and transferred into 96-well half-area plates (Greiner, Frickenhausen, Germany) at a density of 10,000 cells per well and incubated for 48 hrs. Medium was exchanged with PBS (Hank's balanced salt solution) and cells were stimulated with ligands at 37° C. for 10 min for Gαi stimulation or arrestin recruitment, respectively.

[6] = target: T1, ALPHA-2A ADRENERGIC RECEPTOR; assay: Arrestin recruitment; assay type: cell-based; conditions: Tables 7-9
[7] = target: α2AAR F427^7.39 mutant (Homo sapiens (Human), UniProt P08913, F427A); assay: Gi activation (BRET) at α2AAR F427^7.39 mutant; assay type: cell-based
Sequence of α2AAR F427^7.39 mutant (P08913 whole entry F427A): as the sequence (P08913 whole entry) above, with F427A counted along it
Procedure: Investigating the sensitivity of selected ligands to the receptor mutants α2AAR-D128^3.32A, α2AAR-D128^3.32T, α2AAR-D128^3.32L, α2AAR-S215^5.42A, α2AAR-Y409^6.55A, α2AAR-Y409^6.55T, α2AAR-Y409^6.55F, α2AAR-F427^7.39F, α2AAR-Y431^7.43A, and α2AAR-Y431^7.43F was determined by monitored G protein stimulation as described above transfecting the appropriate receptor together with Gαi1-RLucII and Gβ1/Gγ1-GFP10. […] Three to ten experiments were done in duplicate.
The sensitivity of selected ligands to the receptor mutants α2AAR-D128^3.32A, α2AAR-D128^3.32T, α2AAR-D128^3.32L, α2AAR-S215^5.42A, α2AAR-Y409^6.55A, α2AAR-Y409^6.55T, α2AAR-Y409^6.55F, α2AAR-F427^7.39F, α2AAR-Y431^7.43A, and α2AAR-Y431^7.43F was monitored by G protein activation as described above transfecting the appropriate receptor together with Gαi1-RLucII and Gβ1/Gγ2-GFP10. […] Similarly, the effect of the α2AAR-D128^3.32A, α2AAR-S215^5.42A, α2AAR-Y409^6.55A, α2AAR-Y409^6.55F, α2AAR-F427^7.39F, α2AAR-Y431^7.43A, and α2AAR-Y431^7.43F mutations on arrestin recruitment was evaluated as described above transfecting the appropriate receptor together with CAAX-rGFP, GRK2 and β-arrestin-2-RLucII. Data was analyzed as ligand induced changes in BRET compared to vehicle (deltaBRET). Three to seven experiments were done in duplicate.

[8] = test system: mice; assay: Rotarod motor test (motor impairment and sedation); assay type: in vivo
[9] = Pharmacokinetics in mice (plasma, brain, CSF); assay type: in vivo
Procedure: Pharmacokinetics. Pharmacokinetic experiments were performed by Bienta (Enamine Biology Services) in accordance with Enamine pharmacokinetic study protocols and Institutional Animal Care and Use Guidelines (protocol number 1-2/2020). […] In each compound study, nine time points (5, 15, 30, 60, 120, 240, 360, 480 and 1440 min) were collected, each of the time point treatment group included 3 animals. There was also a control group of one animal. In the ‘9087, ‘7075, ‘4622 studies, male C57BL/6N mice were used, for PS75 CD-1 mice, and for ‘2998 male Balb/cAnN mice. For all compound studies the animals were randomly assigned to the treatment groups before the pharmacokinetic study; all animals were fasted for 4 h before dosing. For injections, ‘9087 was dissolved in Captisol—water (40%:60%, w/v), ‘4622 was dissolved in a 20% Kolliphor HS—physiological saline solution, and ‘7075, PS75, and ‘2998 were dissolved in a 20% 2-HPBCD—aqueous solution. The batches of working formulations were prepared 10 minutes prior to the in vivo study.
Mice were injected i.p. with 2,2,2-tribromoethanol at 150 mg/kg prior to drawing CSF and blood. CSF was collected under a stereomicroscope from cisterna magna using 1 mL syringes. Blood collection was performed from the orbital sinus in microtainers containing K3EDTA. Animals were sacrificed by cervical dislocation after the blood samples collection. Blood samples were centrifuged 10 min at 3000 rpm. Brain samples (right lobe) were weighed and transferred into 1.5 ml tubes. All samples were immediately processed, flash-frozen and stored at −70° C. until subsequent analysis.
Plasma samples (40 μL) were mixed with 200 μL of internal standard (IS) solution. After mixing by pipetting and centrifuging for 4 min at 6000 rpm, 4 μL of each supernatant was injected into the LC-MS/MS system. Solutions of internal standards were used to quantify compounds in the plasma samples. […] After this, the samples were centrifuged for 4 min at 14,000 rpm, and supernatant was injected into LC-MS/MS system. CSF samples (2 μL) were mixed with 40 μL of an internal stock solution. After mixing by pipetting and centrifuging for 4 min at 6,000 rpm, 5 μL of each supernatant was injected into LC-MS/MS system.
(§1) Analyses of plasma, brain and CSF samples were conducted at Enamine/Bienta. The concentrations of compounds in plasma and brain samples were determined using high performance liquid chromatography/tandem mass spectrometry (HPLC-MS/MS). Data acquisition and system control was performed using Analyst 1.5.2 software (AB Sciex, Canada). […] Pharmacokinetic data analysis was performed using noncompartmental, bolus injection or extravascular input analysis models in WinNonlin 5.2 (PharSight).
Mice were injected i.p. with 2,2,2-tribromoethanol at 150 mg/kg prior to drawing CSF and blood. CSF was collected under a stereomicroscope from cisterna magna using 1 mL syringes. Blood collection was performed from the orbital sinus in microtainers containing K3EDTA. Animals were sacrificed by cervical dislocation after the blood samples collection. Blood samples were centrifuged 10 min at 3000 rpm. Brain samples (right lobe) were weighed and transferred into 1.5 mL tubes. All samples were immediately processed, flash-frozen and stored at −70° C. until subsequent analysis.
as §1
Additional pharmacokinetic experiments were performed by Sai Life Sciences (Hyderabad, India) in accordance with the Sai Study Protocol SAIDMPK/PK-22-04-0340. […] Testing was done in C57BL/6 mice.

[10] = target: T2, human α2AAR; assay: β-arrestin-2 recruitment, BRET biosensor assay in HEK293T cells; conditions: HEK-293T
Procedure: as §2

[11] = test system: naïve mice; assay: Mechanical thresholds (von Frey) in naïve (uninjured) mice; conditions: mouse, in vivo
[12] = target: T2, human α2AAR; assay: α2AAR internalization assay with rGFP-CAAX and rGFP-FYVE biosensors; assay type: cell-based; conditions: α2AAR-RlucII/rGFP-CAAX biosensor
Procedure: Human α2AAR internalization was evaluated by measuring the disappearance of hα2AAR-RlucII from the plasma membrane labeled with rGFP-CAAX and its relocalization in endosome labeled with rGFP-FYVE (39).
For concentration-response curves, BRET signal was measured after 30 min incubation. Plates were read on a Spark microplate reader (Tecan; Mannedorf, Switzerland) using the BRET2 manufacturer settings.

[13] = Metabolic stability in male rat liver microsomes; assay type: in vitro ADME; conditions: 1 hour
Procedure: Metabolic stability studies. Metabolic stability of the test compounds was assessed using male pooled rat liver microsomes (Sprague Dawley, Sigma Aldrich) as previously described (93, 94). The reactions were carried out in 2 mL polyethylene tubes on a rotator carousel (Stuart™ SB3) in an incubator at 37° C. […] Transformation reactions were initiated by the addition of 50 μL of cofactor solution (NADPH, Carl Roth, final concentration 1 mM). […] Precipitated protein was removed by centrifugation (1 min, 16,000 rcf) and the supernatants were analysed by HPLC/MS on a Thermo Scientific Dionex Ultimate 3000 HPLC system equipped with a Zorbax Eclipse XDB-C8 column (4.6×150 mm, 5 μm), a DAD detector (210 nm, 230 nm, 254 nm, 310 nm), and a BRUKER amaZon SL mass spectrometer with ESI source. The following binary eluent system (methanol in water+0.1% (v/v) formic acid) was employed: 10% for 1 min, 10% to 100% in 20 min, 100% for 5 min, 100% to 10% in 2 min, 10% for 2 min, flow 0.4 mL/min. […] Control experiments were conducted in the absence of cofactor solution to determine non-specific binding to matrix. The integral (AUC) of the extracted ion chromatograms (EIC) was used to analyze the concentration of the remaining substrates. […]

[14] = test system: mice; assay: Tail flick (50° C.) acute thermal pain assay; assay type: in vivo
[15] = analgesia in vivo; conditions: result in words, Table 6
[16] = target: murine α2AAR (Mus musculus (Mouse), UniProt Q01338); assay: Radioligand competition binding to murine α2AAR; conditions: saturation binding
Sequence of murine α2AAR (Q01338 whole entry): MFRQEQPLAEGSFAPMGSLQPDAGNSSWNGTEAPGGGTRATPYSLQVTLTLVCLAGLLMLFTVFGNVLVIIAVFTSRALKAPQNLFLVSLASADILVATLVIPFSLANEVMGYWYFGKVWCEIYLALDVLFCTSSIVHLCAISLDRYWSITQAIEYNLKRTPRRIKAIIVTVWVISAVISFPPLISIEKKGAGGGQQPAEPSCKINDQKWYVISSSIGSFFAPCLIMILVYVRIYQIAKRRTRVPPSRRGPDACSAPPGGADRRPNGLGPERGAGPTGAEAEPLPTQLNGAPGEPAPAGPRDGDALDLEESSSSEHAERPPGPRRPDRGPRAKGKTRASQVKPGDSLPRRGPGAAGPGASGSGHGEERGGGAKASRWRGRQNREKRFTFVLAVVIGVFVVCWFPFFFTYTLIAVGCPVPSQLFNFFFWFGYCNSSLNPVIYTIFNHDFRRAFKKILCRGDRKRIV

[17] = target: human α2BAR (Homo sapiens (Human), UniProt P18089); assay: Radioligand competition binding to human α2BAR; conditions: saturation binding
Sequence of human α2BAR (P18089 whole entry): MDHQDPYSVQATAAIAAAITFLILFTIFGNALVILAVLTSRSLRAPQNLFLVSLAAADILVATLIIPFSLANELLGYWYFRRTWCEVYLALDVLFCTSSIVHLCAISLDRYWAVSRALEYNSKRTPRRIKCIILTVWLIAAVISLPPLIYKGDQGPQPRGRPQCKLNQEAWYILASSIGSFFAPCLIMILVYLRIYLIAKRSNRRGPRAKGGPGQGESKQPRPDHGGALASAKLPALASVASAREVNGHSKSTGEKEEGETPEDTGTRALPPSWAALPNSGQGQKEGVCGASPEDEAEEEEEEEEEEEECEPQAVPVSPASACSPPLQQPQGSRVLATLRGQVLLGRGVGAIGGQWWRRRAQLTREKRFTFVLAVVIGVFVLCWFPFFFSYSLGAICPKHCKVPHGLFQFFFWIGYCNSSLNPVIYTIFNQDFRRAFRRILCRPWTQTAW

[18] = target: α2CAR (Homo sapiens (Human), UniProt P18825); assay: Radioligand binding to α2C adrenergic receptor; conditions: saturation binding
Sequence of α2CAR (P18825 whole entry): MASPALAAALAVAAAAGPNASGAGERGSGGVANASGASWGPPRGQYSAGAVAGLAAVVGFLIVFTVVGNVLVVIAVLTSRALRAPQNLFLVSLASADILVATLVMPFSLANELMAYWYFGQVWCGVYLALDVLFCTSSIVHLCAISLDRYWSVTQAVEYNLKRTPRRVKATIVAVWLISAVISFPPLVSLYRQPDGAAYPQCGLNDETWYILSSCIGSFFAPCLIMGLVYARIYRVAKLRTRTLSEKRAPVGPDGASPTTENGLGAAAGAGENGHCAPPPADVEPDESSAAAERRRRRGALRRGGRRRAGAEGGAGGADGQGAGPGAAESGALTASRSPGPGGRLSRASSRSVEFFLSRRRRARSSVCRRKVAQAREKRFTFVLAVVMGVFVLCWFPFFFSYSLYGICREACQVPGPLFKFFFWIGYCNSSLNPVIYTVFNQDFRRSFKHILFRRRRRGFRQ

[19] = mean ± s.e.m., read-out: Ki for α2AAR
[20] = Gαi EC50, BRET biosensor, HEK293T, human α2AAR
[21] = C57BL/6N ('9087, '7075, '4622), CD-1 (PS75), mouse, CSF, ip, I.P. 10 mg/kg, read-out: T ½ CSF (converted)
[22] = mouse, brain, ip, I.P. 10 mg/kg, read-out: T ½ Brain (converted)
[23] = mouse, plasma, ip, I.P. 10 mg/kg
[24] = mouse, plasma, ip, I.P. 10 mg/kg, read-out: T ½ Plasma (converted)
[25] = C57BL/6N ('9087), C57BL/6 (PS75), mouse, plasma, iv, I.V. 10 mg/kg
[26] = C57BL/6N ('9087), C57BL/6 (PS75), mouse, plasma, po, P.O. 30 mg/kg

C1=C(c2ccc3c(c2)CC3)CNCC1 [Compound 4622, 5-(Bicyclo[4.2.0]octa-1,3,5-trien-3-yl)-1,2,3,6-tetrahydropyridine]
Thermal latencies / anti-hyperalgesic effect in CFA model [1]: exhibited anti-hyperalgesic effects
Effect of atipamezole on the agonist's effect in SNI mice [2]: reversed by atipamezole
Mechanical thresholds / anti-allodynic effect in SNI mice ([2]; systemic injection): exhibited anti-allodynic effects
EC50 [3]: 45 nM
Emax ([3]; Gi recruitment, Tables 7-9, read-out: G protein Emax (%)): 76%
Ki [4, 19]: 12 ± 3.6 nM
EC50 [5, 20]: 9.7 ± 2.4 nM
Emax ([5]; read-out: Gαi Emax): 74 ± 4%
Emax [6]: < 5%
Gi activity at F427^7.39 substitution [7]: eliminated
Motor impairment / sedation in rotarod test ([8]; equi-analgesic doses (DEX: higher doses)): slight motor impairment
half-life [9, 21]: 14.5 h
AUC Brain ([9]; I.P. 10 mg/kg): 1160000 ng·min/mL
AUC CSF ([9]; I.P. 10 mg/kg): 18400 ng·min/mL
Cmax Brain ([9]; I.P. 10 mg/kg): 16200 ng/mL
Cmax CSF ([9]; I.P. 10 mg/kg): 44.2 ng/mL
half-life [9, 22]: 0.88 h
AUC [9, 23]: 567 ng·h/mL
Cmax [9, 23]: 620 ng/mL
half-life [9, 24]: 1.01 h
Emax ([10]; read-out: β-arrestin-2 Emax): < 5%

Clc1ccc2cccc(Nc3ccncc3)c2c1 [PS75, N-(7-Chloronaphthalen-1-yl)pyridin-4-amine x TFA]
Effect of atipamezole on the agonist's effect in SNI mice ([2]; TFA): not significant reversal; also recorded: partially reversed
Mechanical thresholds / anti-allodynic effect in SNI mice ([2]; systemic injection): exhibited anti-allodynic effects
Reversal of mechanical hypersensitivity in SNI mice ([2]; systemic injection): completely reversed the mechanical hypersensitivity
functional classification (agonist / weak agonist) ([3]; Gi recruitment, Table 6, result in words): agonist
EC50 ([3]; Gi recruitment, Table 6, read-out: EC50): 4.8 nM
Emax ([3]; Gi recruitment, Table 6, read-out: Emax (%)): 79%
Ki ([4]; mean ± SEM (Table 3), read-out: Ki): 8.2 ± 0.48 nM
Ki [4, 19]: 8.2 ± 0.48 nM
Mechanical thresholds of naïve (uninjured) mice [11]: did increase the mechanical thresholds
Disappearance of α2AAR from the plasma membrane (internalization) [12]: no effect
EC50 ([5]; Gi EC50 ± SE, BRET biosensor, human α2AAR (Table 3)): 4.8 nM
EC50 [5, 20]: 4.8 nM
Emax ([5]; read-out: Gi Emax ± SEM): 82%
Emax ([5]; read-out: Gαi Emax): 82%
Fold increased Gi potency compared to ‘9087 ([5]; TFA): 13 fold and 11 fold
Metabolic stability, compound remaining [13]: remain largely unmodified after 1 hour
Withdrawal latencies, tail flick [14]: increased withdrawal latencies
Performance in rotarod test ([8]; doses up to 20 mg/kg): did not have an effect
analgesic in vivo [15]: analgesic in vivo
AUC [9, 25]: 3460 ng·h/mL
Cmax [9, 25]: 2590 ng/mL
half-life ([9]; C57BL/6N ('9087), C57BL/6 (PS75), mouse, plasma, iv, I.V. 10 mg/kg, read-out: T ½ Plasma (converted)): 1.64 h
bioavailability ([9]; C57BL/6N ('9087), C57BL/6 (PS75), mouse, plasma, oral, from I.V. 10 mg/kg and P.O. 30 mg/kg dosing): 102%
AUC [9, 26]: 10600 ng·h/mL
Cmax [9, 26]: 2390 ng/mL
half-life ([9]; C57BL/6N ('9087), C57BL/6 (PS75), mouse, plasma, po, P.O. 30 mg/kg, read-out: T ½ Plasma (converted)): 3.17 h
half-life [9, 21]: 2.55 h
AUC Brain ([9]; I.P. 10 mg/kg): 888000 ng·min/mL
AUC CSF ([9]; I.P. 10 mg/kg): 7790 ng·min/mL
Cmax Brain ([9]; I.P. 10 mg/kg): 9200 ng/mL
Cmax CSF ([9]; I.P. 10 mg/kg): 99.3 ng/mL
half-life [9, 22]: 1.07 h
AUC [9, 23]: 927 ng·h/mL
Cmax [9, 23]: 679 ng/mL
half-life [9, 24]: 0.73 h
Emax ([10]; read-out: β-Arr-2 Emax @ 0.1 mM): 15%
Emax at 100 µM ([10]; read-out: β-arrestin-2 Emax @ 0.1 mM): 15 ± 3%

COC1(C2=NCCN2)COc2ccccc2O1 (centres unmarked) [[^3H]RX82,1002]
Kd [16]: 1.8 ± 0.61 nM
Kd ([4]; saturation binding): 0.54 ± 0.024 nM
Kd [17]: 2.3 ± 0.52 nM
Kd [18]: 0.58 ± 0.11 nM
